# Laboratory results from US8546370B2, “Compounds and compositions as kinase inhibitors” (IRM LLC, priority 2008, dated 2013).
# Legend:
# [1] = target: Ba/F3 cells transformed with Tel c-Kit (Homo sapiens, UniProt P10721); settings: read-out: IC50 in BaF3/Tel-KIT cellular assay
# Procedure: (§1) Compounds of the invention are tested for their antiproliferative effect on Ba/F3 cells expressing either Tel-TrkA, Tel-TrkB or Tel-TrkC and an additional panel of 34 selected diverse kinases activated by fusion to the dimerizing partners Bcr or Tel (Abl, AlK, BMX, EphA3, EphB2, FGFR2, FGFR3, FGFR4, FGR, FLT1, FLT3, FLT4, FMS, IGF1R, InsR, JAK1, JAK2, JAK3, KDR, Kit, Lck, Lyn, MER, MET, PDGFRb, RET, RON, Ros-1, Src, Syk, TIE2, TYK2, Tie1, ZAP70). The antiproliferative effect of these compounds on the different cell lines and on the non transformed cells were tested at 12 different concentrations of 3-fold serially diluted compounds in 384 well plates as described above (in media lacking IL3). The IC50 values of the compounds the different cell lines were determined from the dose response curves obtained as describe above.
# [2] = target: Ba/F3 cells expressing Tel-FMS (Homo sapiens, UniProt P07333); settings: read-out: IC50 in BaF3/Tel-FMS cellular assay
# Chain of Ba/F3 cells expressing Tel-FMS (P07333 20-972 limits assumed, change not shown): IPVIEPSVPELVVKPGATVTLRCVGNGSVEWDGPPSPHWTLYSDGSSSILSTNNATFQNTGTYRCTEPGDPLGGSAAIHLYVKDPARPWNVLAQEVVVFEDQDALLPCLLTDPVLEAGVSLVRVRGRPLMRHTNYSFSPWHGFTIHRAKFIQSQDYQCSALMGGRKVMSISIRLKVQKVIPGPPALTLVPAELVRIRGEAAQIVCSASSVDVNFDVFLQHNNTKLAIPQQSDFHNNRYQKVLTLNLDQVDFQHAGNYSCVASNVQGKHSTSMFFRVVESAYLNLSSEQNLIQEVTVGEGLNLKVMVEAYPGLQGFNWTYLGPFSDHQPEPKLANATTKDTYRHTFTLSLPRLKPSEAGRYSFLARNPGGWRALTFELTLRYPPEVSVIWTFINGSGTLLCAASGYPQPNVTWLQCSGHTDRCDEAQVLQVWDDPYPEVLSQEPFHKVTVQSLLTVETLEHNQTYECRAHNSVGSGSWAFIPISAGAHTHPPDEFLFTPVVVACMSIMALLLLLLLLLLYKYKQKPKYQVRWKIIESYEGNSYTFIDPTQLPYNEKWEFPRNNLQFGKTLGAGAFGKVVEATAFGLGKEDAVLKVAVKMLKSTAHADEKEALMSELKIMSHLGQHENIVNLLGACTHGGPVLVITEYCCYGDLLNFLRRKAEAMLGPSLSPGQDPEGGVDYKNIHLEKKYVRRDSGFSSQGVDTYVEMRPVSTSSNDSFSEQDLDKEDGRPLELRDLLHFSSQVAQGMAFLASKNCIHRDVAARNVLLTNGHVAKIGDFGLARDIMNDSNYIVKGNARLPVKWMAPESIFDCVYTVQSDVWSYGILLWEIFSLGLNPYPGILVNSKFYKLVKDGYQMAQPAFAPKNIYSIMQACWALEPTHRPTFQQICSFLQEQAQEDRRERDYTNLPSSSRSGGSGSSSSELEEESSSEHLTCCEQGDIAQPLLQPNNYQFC
# Procedure: as §1
# [3] = target: Ba/F3 cells transformed with human Tel-TrkA (Homo sapiens, UniProt P04629); settings: read-out: IC50 in BaF3/Tel-TRKA cellular assay
# Chain of Ba/F3 cells transformed with human Tel-TrkA (P04629 33-796 limits assumed, change not shown): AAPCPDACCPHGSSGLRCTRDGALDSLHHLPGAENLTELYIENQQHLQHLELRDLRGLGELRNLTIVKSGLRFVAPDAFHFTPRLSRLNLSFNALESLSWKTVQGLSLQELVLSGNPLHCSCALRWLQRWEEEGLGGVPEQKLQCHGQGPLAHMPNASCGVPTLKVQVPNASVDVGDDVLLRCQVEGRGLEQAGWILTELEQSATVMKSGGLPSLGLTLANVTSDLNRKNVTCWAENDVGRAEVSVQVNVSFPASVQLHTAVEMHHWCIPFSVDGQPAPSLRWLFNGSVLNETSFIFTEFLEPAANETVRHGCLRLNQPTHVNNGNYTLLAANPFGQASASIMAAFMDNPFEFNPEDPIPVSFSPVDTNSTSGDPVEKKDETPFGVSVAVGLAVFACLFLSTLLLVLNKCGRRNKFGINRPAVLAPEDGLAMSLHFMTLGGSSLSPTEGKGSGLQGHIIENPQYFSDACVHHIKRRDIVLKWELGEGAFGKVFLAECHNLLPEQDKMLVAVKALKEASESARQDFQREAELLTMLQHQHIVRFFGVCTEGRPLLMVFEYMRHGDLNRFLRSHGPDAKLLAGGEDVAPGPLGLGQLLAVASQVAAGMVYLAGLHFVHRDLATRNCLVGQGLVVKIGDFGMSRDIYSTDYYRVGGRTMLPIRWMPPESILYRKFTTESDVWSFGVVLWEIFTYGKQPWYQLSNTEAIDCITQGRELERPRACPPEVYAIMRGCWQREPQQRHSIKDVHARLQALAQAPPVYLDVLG
# Procedure: as §1
# [4] = target: FLT3 (Homo sapiens (Human), UniProt P36888); assay: Caliper LabChip mobility-shift kinase assay, single point; assay type: biochemical; settings: at a concentration of 5 μM
# Procedure: (§2) In addition, compounds of Formula (I) were assessed for their ability to inhibit individual kinases utilizing Caliper Life Sciences' proprietary LabChip™ technology. A partial, non-limiting list of kinases includes: Syk, ZAP70, KDR, FMS, FLT3, c-Kit, RET, TrkA, TrkB, TrkC, IGR-1R, Alk and c-FMS kinases. The off-chip incubation mobility-shift kinase assay uses a microfluidic chip to measure the conversion of a fluorescent peptide substrate to a phosphorylated product. The reaction mixture, from a microtiter plate well, is introduced through a capillary sipper onto the chip, where the nonphosphorylated substrate and phosphorylated product are separated by electrophoresis and detected via laser induced fluorescence. […] The phosphorylated product migrates through the chip faster than the non-phosphorylated substrate, and signals from the two forms of the peptide appear as distinct peaks. Caliper's data analysis software (HTSWA) determines peak heights, from which the ratio of product to the peak sum P/(P+S) and percent (%) conversion is calculated. This value is used to compare compound wells to control wells present on the plate, and thereby determine the % inhibition values for the compound.
# (§3) Generally, 12 μL of enzyme buffer containing purified kinase (various amount; various suppliers), 100 mM HEPES, pH 7.5, 1 mM DTT (Calbiochem, 2333153), 10 mM MgCl2 (Sigma, M-1028) or 10 mM MnCl2 (Sigma, M-1787) (assay specific), and 0.002% Brij-35 (Sigma, B4184) are added to each well. Compound and enzyme are allowed to pre-incubate for 15 minutes. 12 μL of peptide/ATP buffer containing 100 mM HEPES, pH 7.5, 1.5 μM fluorescein-labeled peptide (specific to kinase of interest), ATP (at KM apparent, Sigma, A9187), and 0.002% Brij-35 is then added to each well to initiate the reaction. The final concentration of DMSO in the well is 4%. Generally, reactions are incubated for 1 to 1.5 hours at room temperature to obtain adequate conversion of peptide to phosphorylated product in the linear range of the reaction. Reactions are terminated with the addition of 45 μL of Stop Buffer (containing 20 mM EDTA). Plates are then read on the LabChip 3000 using a 12-sipper LabChip. % conversion values and % inhibition values are obtained as described and IC50 curves of compounds are generated using GraphPad Prism Version 4 or 5.01, or XLfit Version 4.3.2. When using GraphPad Prism, a nonlinear curve fit using the sigmoidal dose response—variable slope fit was used to graph IC50 curves and determine IC50 values and hillslopes. When using XLfit, Fit Model 205 (4-Parameter Logistic Model) is used to generate and fit the IC50 curve.
# [5] = target: FMS (Homo sapiens (Human), UniProt P07333); assay: as above; assay type: biochemical; settings: at a concentration of 5 μM
# Chain of FMS (P07333 20-972, species assumed): as the sequence (P07333 20-972 limits assumed, change not shown) above
# Procedure: as §2, §3
# [6] = target: Abl (Homo sapiens (Human), UniProt P00519); assay: as above; assay type: biochemical; settings: at a concentration of 5 μM
# Procedure: as §2, §3
# [7] = target: TRKA (Homo sapiens (Human), UniProt P04629); assay: as above; assay type: biochemical; settings: at a concentration of 5 μM
# Chain of TRKA (P04629 33-796, species assumed): as the sequence (P04629 33-796 limits assumed, change not shown) above
# Procedure: as §2, §3
# [8] = target: CHK2 (Homo sapiens (Human), UniProt O96017); assay: as above; assay type: biochemical; settings: at a concentration of 5 μM
# Chain of CHK2 (O96017 whole entry, species assumed): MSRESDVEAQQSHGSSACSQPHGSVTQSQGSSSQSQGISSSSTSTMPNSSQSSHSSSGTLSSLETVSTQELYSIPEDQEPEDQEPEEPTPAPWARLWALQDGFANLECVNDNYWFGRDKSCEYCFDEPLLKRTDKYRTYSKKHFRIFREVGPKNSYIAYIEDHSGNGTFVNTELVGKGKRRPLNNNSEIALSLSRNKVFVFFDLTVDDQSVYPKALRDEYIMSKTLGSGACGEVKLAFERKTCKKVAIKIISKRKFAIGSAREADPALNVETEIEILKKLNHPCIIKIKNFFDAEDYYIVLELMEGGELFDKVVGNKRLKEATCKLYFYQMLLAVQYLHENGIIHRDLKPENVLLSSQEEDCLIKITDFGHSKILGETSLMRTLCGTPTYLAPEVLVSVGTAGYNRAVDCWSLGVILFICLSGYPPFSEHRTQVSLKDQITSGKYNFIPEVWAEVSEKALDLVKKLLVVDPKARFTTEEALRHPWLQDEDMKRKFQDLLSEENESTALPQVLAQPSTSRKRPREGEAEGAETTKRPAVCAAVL
# Procedure: as §2, §3
# [9] = target: KDR (Homo sapiens (Human), UniProt P35968); assay: as above; assay type: biochemical; settings: at a concentration of 5 μM
# Chain of KDR (P35968 20-1356, species assumed): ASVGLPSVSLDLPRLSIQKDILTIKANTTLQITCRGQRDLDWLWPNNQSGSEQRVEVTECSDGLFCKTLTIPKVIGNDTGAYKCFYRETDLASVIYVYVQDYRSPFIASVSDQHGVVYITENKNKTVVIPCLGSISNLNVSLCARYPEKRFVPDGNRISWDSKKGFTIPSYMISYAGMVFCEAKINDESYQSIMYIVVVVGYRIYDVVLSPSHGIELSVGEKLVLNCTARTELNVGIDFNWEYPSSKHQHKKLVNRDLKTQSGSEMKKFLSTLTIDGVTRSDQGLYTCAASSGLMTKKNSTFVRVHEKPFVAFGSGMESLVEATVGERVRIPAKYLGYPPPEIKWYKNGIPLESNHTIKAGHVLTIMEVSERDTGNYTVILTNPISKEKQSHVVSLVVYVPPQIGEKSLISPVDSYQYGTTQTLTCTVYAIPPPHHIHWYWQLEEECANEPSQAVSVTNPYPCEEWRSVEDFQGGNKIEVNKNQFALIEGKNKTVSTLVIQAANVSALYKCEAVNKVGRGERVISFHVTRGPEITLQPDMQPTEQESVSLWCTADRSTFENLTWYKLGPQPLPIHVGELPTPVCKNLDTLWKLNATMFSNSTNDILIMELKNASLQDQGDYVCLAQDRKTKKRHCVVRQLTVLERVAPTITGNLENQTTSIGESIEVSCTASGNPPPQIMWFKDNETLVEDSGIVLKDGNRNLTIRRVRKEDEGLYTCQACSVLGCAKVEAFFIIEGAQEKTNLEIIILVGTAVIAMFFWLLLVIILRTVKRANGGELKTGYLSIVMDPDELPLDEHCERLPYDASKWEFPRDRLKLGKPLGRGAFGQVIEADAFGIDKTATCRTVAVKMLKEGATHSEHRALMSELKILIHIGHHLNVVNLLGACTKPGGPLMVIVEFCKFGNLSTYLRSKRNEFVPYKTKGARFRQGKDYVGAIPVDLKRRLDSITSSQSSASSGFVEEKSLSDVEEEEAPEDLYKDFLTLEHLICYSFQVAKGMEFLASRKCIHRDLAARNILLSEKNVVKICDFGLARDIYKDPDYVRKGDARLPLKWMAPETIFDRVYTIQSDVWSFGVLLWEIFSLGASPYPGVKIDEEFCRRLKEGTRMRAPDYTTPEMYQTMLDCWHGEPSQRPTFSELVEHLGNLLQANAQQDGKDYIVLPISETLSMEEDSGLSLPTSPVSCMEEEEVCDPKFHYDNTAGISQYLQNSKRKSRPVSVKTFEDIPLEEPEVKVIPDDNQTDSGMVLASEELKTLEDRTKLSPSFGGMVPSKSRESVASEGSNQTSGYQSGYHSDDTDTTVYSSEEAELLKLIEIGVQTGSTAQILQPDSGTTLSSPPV
# Procedure: as §2, §3
# [10] = target: JAK2 (Homo sapiens (Human), UniProt O60674); assay: as above; assay type: biochemical; settings: at a concentration of 5 μM
# Procedure: as §2, §3
# [11] = target: RET (Homo sapiens (Human), UniProt P07949); assay: as above; assay type: biochemical; settings: at a concentration of 5 μM
# Procedure: as §2, §3
# [12] = target: Ba/F3 cells transformed with Tel-Syk (Homo sapiens, UniProt P43405); settings: read-out: IC50 in BaF3/Tel-Syk cellular assay
# Procedure: (§4) Luciferase expressing Ba/F3 murine pro-B cells are transformed with Tel-Syk, Tel-Zap70 or Tel-KDR. Cells are maintained in RPMI/10% fetal calf serum (RPMI/FCS) supplemented with penicillin 50 μg/mL, streptomycin 50 μg/mL and L-glutamine 200 mM. Untransformed Ba/F3 cells are similarly maintained with the addition of murine recombinant IL3. Cells are dispensed into 384-well format plate at 5000 cell/well in 50 μL of culture medium. Compounds of the invention are dissolved and diluted in dimethylsufoxide (DMSO). Twelve points 1:3 serial dilutions are made into DMSO to create concentrations gradient ranging from 10 mM to 0.05 μM. Cells are added with 50 nL of diluted compounds and incubated for 48 hours in cell culture incubator. Luminiscent signal is measured following the addition of Bright Glo® (Promega) luciferase substrate. IC50 values are calculated by linear regression analysis of the percentage inhibition of each compound at 12 concentrations.
# as §1
# [13] = target: Ba/F3 cells transformed with Tel-KDR (Homo sapiens, UniProt P35968); settings: read-out: IC50 in BaF3/Tel-KDR cellular assay
# Chain of Ba/F3 cells transformed with Tel-KDR (P35968 20-1356 limits assumed, change not shown): as the sequence (P35968 20-1356, species assumed) above
# Procedure: as §4, §1
# [14] = target: Ba/F3 cells expressing Tel-FLT3 (Homo sapiens, UniProt P36888); settings: read-out: IC50 in BaF3/Tel-FLT3 cellular assay
# Procedure: as §1
# Chain of Ba/F3 cells transformed with Tel c-Kit (P10721 26-976 limits assumed, stated change not applied): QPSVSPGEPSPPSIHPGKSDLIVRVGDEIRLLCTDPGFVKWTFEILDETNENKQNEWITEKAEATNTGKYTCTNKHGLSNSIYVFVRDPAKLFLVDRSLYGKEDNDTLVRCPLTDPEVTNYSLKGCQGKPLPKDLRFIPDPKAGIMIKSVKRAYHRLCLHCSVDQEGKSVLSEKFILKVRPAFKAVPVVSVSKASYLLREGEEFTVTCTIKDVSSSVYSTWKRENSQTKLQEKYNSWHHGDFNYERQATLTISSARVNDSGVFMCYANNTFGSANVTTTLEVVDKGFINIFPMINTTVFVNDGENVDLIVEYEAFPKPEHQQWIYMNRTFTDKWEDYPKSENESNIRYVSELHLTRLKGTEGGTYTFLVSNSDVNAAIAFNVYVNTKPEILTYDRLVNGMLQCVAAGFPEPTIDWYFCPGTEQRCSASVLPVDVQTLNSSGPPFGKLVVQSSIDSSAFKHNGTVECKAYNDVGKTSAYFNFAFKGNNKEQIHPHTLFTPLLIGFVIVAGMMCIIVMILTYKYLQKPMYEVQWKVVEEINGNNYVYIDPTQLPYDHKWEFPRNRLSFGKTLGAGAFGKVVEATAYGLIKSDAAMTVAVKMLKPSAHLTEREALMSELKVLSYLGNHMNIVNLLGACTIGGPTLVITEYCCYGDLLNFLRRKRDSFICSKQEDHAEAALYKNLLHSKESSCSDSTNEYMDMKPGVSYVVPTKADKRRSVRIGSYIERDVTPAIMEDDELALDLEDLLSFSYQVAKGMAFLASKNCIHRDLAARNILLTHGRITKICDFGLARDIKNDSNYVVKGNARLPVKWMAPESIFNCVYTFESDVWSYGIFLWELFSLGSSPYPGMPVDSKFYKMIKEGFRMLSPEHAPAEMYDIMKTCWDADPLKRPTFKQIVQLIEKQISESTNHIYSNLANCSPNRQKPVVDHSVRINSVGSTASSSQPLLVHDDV
Structure (SMILES),IC50 [1] [nM],IC50 [2] [nM],IC50 [3] [nM],inhibition at 5 µM [4] [%],inhibition at 5 µM [5] [%],inhibition at 5 µM [6] [%],inhibition at 5 µM [7] [%],inhibition at 5 µM [8] [%],inhibition at 5 µM [9] [%],inhibition at 5 µM [10] [%],inhibition at 5 µM [11] [%],IC50 [12] [nM],IC50 [13] [nM],IC50 [14] [nM]
"O=c1[nH]ccc2cc(-c3ccccc3)nc(Nc3ccc(N4CCOCC4)cc3)c12 [No 11, 8-(4-morpholinophenylamino)-6-phenyl-2,7-naphthyridin-1(2H)-one]",20,20,70,100,84,100,74,94,96,96,99,150,270,
"CCN1CCN(c2cc3cc[nH]c(=O)c3c(Nc3ccc(N4CCOCC4)cc3)n2)CC1 [No 83, 8-(4-morpholinophenylamino)-6-(4-ethylpiperazin-1-yl)-2,7-naphthyridin-1(2H)-one]",1220,500,490,,,,,,,,,120,5000,530
